In US20090170949A1, “Method To Control Body Weight” (priority 2006, published 2009):

Experiments:
[1] = rats, high lactisole concentrations added to the diet; considered statistically insignificant; cited from earlier work
[2] = Effect of lactisole on body weight (applicant's general finding); type: in vivo; settings: also when encapsulated and/or coated to avoid contact with the taste receptor of the mouth
[3] = Triglycerides in blood plasma of obese marmosets treated with coated lactisole pills; type: in vivo, common marmoset monkeys (Callithrix jacchus); set-up: Triglycerides in blood plasma: unit not given here
Protocol: 5 mm diameter coated pill were made, comprising 20 mg tablettose, 26.5 mg Avicell PH 102, 2.5 mg Crospovidone and 1 mg Mg-stearate for the placebo, and 35 mg sodium 2-(4-methoxyphenoxy)propionate (Endeavour speciality chemicals), 11.5 mg Avicel PH 102, 2.5 mg Crospovidone and 1 mg Mg-stearate for the Lactisole pills. Pills were coated in a fluidized bed (GCPG1, Glatt), at a spray rate of 4 g/min, atomic pressure 1.5 bar, inlet air temperature 36° C., product temperature 31° C. at maximal air velocity. The composition of the coating solution was 11.4% Eudragit® EPO(Röhm Pharma), 1.14% Sodium lauryl sulphate (α-pharma), 4% Mg-stearate (α-pharma), 1.72% stearic acid (α-pharma) and water ad 100%.
Adult male and female common marmoset monkeys (Callithrix jacchus) were from the breeding colony of the German Primate Center (DPZ), Göttingen, Germany. Animals were housed in pairs in air-conditioned facilities on a 12 hr/12: HR light/dark cycle.
Animals were fed two times a day: mash feeding, containing 15 g of test diet in the morning, and 60 g of test diet in the afternoon (value per animal). Each time before feeding, the animals received two pills (either placebo or lactisole) in nutrical gel.
Three groups of marmosets were compared: 11 obese animals treated with lactisole, 11 obese animals receiving placebo and 12 lean control animals receiving placebo. The experiment is carried out for 10 weeks, and bodyweight, glycated hemoglobin HbA1c, and glucose in blood plasma is measured. […]
Obese animals were treated for 7 weeks with lactisole (70 mg, two times a day, before feeding). Control obese and lean animals received placebo pills.

SGLT1 [4] = experiment: SGLT1 mRNA levels (real-time PCR) in small intestine of wild-type mice on low carbohydrate plus sucralose diet; type: in vivo, mouse; settings: proximal and mid intestinal regions, sucralose (2 mM) added to low carbohydrate diet, 2 weeks, qPCR
Protocol: (§1) Male CD-1 and C57BL/6 mice, six weeks old, from Charles River Laboratories were used. The α-gustducin knock out mouse was described by Wong et al. (1996); the T1R3 knock out mouse was described by Damak et al. 2003).
(§2) High and low carbohydrate diets were resp. TestDiet® 5810 and TestDiet® 5787-9. For the sucralose test, the low carbohydrate diet was supplemented with sucralose (1,6-dichloro-1,6-dideoxy-beta-D-fructofuranosyl-4-chloro-4-deoxy-alpha-galactopyranoside) at 2 mM.
(§3) Animals were killed by concussion followed by cervical dislocation. The entire small intestine was removed and flushed with ice-cold 0.9% NaCl, opened longitudinally, rinsed in saline and mucous removed by blotting. The small intestine was then divided into proximal, mid and distal sections and the mucosa removed by scraping. Mucosal scrapings were frozen immediately in liquid nitrogen and stored at −80° C. until use. […]
(§4) Second, groups of wild-type and T1R3 and α-gustducin KO mice were placed on each of three iso-caloric diets a) low carbohydrate, b) high carbohydrate, and c) low carbohydrate+artificial sweetener (sucralose), for two weeks. After this time the mice were killed and the small intestines were removed, divided into proximal, mid and distal regions, and SGLT1 expression, at protein and mRNA levels, were measured in each.

[5] = male and female dogs, diet with various concentrations of sucralose; cited from earlier work
[6] = Body weight gain and food intake of mice on low carbohydrate diet with or without sucralose; type: in vivo, mice (C57BL/6); settings: C57BL/6 mice, low carbohydrate diet with 0.3% sucralose, ad libitum, 12 weeks
Excerpt: induction of weight increase in mice by the use of an artificial sweetener Two groups of mice (C57BL/6) were fed ad libitum with a low carbohydrate diet (1.9% remaining carbohydrate, Purina), with or without 0.3% sucralose (Tate and Lyle). Food consumption and body weight was followed for a period of 12 weeks.

SGLT1 [7] = experiment: SGLT1 expression in α-gustducin knock-out mice on low carbohydrate plus sucralose diet; type: in vivo, mouse; settings: α-gustducin KO mice, 2 weeks
Protocol: as §1, §2, §3, §4

SGLT1 [8] = experiment: SGLT1 protein expression (western blot of luminal membrane vesicles) in wild-type mice on low carbohydrate plus sucralose diet; type: in vivo, mouse; settings: 2 weeks
Protocol: as §1, §2, §3, §4

SGLT1 [9] = experiment: SGLT1 expression in T1R3 knock-out mice on low carbohydrate plus sucralose diet; type: in vivo, mouse; settings: T1R3 KO mice, 2 weeks
Protocol: as §1, §2, §3, §4

SMILES | body-weight gain [1] | effect on body weight [2] | Triglycerides in blood plasma ([3]; obese marmosets N = 11, high carb feeding week 0, week −4 with respect to lactisole treatment (before treatment)) | Triglycerides in blood plasma ([3]; obese marmosets N = 11, high carb feeding week 3, week −1 with respect to lactisole treatment (before treatment)) | Triglycerides in blood plasma ([3]; obese marmosets N = 11, high carb feeding week 5, week 1 of lactisole treatment, 70 mg two times a day) | Triglycerides in blood plasma ([3]; obese marmosets N = 11, high carb feeding week 7, week 3 of lactisole treatment, 70 mg two times a day) | Triglycerides in blood plasma ([3]; obese marmosets N = 11, high carb feeding week 9, week 5 of lactisole treatment, 70 mg two times a day) | Triglycerides in blood plasma ([3]; obese marmosets N = 11, high carb feeding week 11, week 7 of lactisole treatment, 70 mg two times a day) | serum triglyceride level, course in treated obese animals ([3]; obese marmosets, 7 weeks lactisole 70 mg two times a day before feeding) | increase of SGLT1 mRNA (SGLT1 [4]) | body weight gain and final body weight [5] | average increase in body weight gain versus control group [6] [%] | food intake higher than control group [6] [%] | SGLT1 mRNA response (SGLT1 [7]) | SGLT1 protein response (SGLT1 [7]) | SGLT1 protein expression (SGLT1 [8]) | SGLT1 mRNA response (SGLT1 [9]) | SGLT1 protein response (SGLT1 [9])
COc1ccc(OC(C)C(=O)O)cc1 (stereo not drawn) [Lactisole, sodium 2-(4-methoxyphenoxy) propanoate] | reduction in body-weight gain | body weight loss | 2.75 | 2.24 | 1.82 | 1.85 | 1.57 | 1.52 | decreasing to the level of the lean control |  |  |  |  |  |  |  |  | 
OC[C@H]1O[C@H](O[C@]2(CCl)O[C@H](CCl)[C@@H](O)[C@@H]2O)[C@H](O)[C@@H](O)[C@H]1Cl [sucralose, 1,6-dichloro-1,6-dideoxy-beta-D-fructofuranosyl-4-chloro-4-deoxy-alpha-galactopyranoside] |  |  |  |  |  |  |  |  |  | 30-70% | gaining more rapidly body weight and reached a higher final body weight level | 42 | 7.5 | no increase | no increase | increased | no increase | no increase
